Laboratory results published in patent US20250101026A1, “Functionalized Allopurinol Derivatives for Treatment of Alzheimer’s Disease” (BOARD OF REGENTS OF THE UNIVERSITY OF NEBRASKA, priority 2022, published 2025).

Columns and labels:
[1] = tested on: SH-SY5Y cells; test: Aβ-induced toxicity in SH-SY5Y cells, MTS assay; format: cell-based, human; conditions: 1 μM
Experimental: Cell Culture. The cell line SH-SY5Y was cultured in DMEM/F12 media supplemented with 10% fetal bovine serum, 1% penicillin-streptomycin and maintained as monolayer cultures in a humidified atmosphere containing 5% CO2 at 37° C.^42 All cell lines were authenticated via short tandem repeat analysis and tested for mycoplasma using the a commercial mycoplasma detection kit as per the manufacturer's instructions, showing no contamination. Where indicated, cells were also cultured in DMEM/low glucose media. All compounds were diluted to 20 mM solution in DMSO and were serially diluted in cell culture media for cell treatments to a final concentration range of 0.01 to 100 μM, maintaining the final DMSO concentration at less than 1%. Positive control compound HupA was serially diluted in a similar fashion as the synthesized compounds.
Amyloid Preparation. The peptide Aβ1-42, referred to as “Aβ”, was obtained from a commercial source. The oligomers of Aβ were prepared using an established method,^43 Aβ peptide was resuspended in 0.5 mM NaOH at a concentration of […] and stored at −80° C. For use in cell cultures, the stock solution was incubated at 37° C. for 5-7 days. Before use, the peptide was diluted to 25 μM in DMEM/low glucose media.
Cell Viability Assays. The SH-SY5Y cells were plated at a density of 50,000 cells/well in 96-well plates and allowed to adapt overnight in a humidified atmosphere containing 5% CO2 at 37° C. The cells were pretreated (24 hours) with the test compound and exchanged to a serum-free DMEM/low glucose media, prior to incubation with 25 μM of Aβ. Cell viability was measured after 48 hours using commercial MTS assay or lactate dehydrogenase (LDH) cytotoxicity assay.
Employing human neuroblastoma SH-SY5Y ‘neuron-like’ cells, known to express ABAD,^20 experimental conditions are described herein that result in reproducible loss of 65% cell viability upon treatment with 25 μM Aβ after 48-hour incubation (FIG. 4A). Compound 1 (AG18051) and its analog 14b were screened for toxic effects in the SH-SY5Y cell lines.
HupA at 10 μM concentration provided 74% protection from Aβ-induced toxicity. […] Again, synthesized compound 14b at 1 μM, afforded greater protection than HupA at 10 μM concentration.

[2] = tested on: 5XFAD primary cortical neurons; test: Mitochondrial morphology (TOM20 staining) in 5XFAD primary cortical neurons; format: cell-based, mouse; conditions: 10 and 50 μM, 48 hours; compared with no treatment control 5XFAD neurons
Experimental: Immunofluorescent Microscopy and Image Analysis. Isolated primary mouse cortical neurons from the 5XFAD Alzheimer's Disease mouse model were cultured for 10 days and then treated with 14b at 10 or 50 μM for 48 hours. Primary neurons growing on the coverslips were washed three times with PBS and fixed with 4% PFA. After permeabilization with 0.5% Triton™ X-100 for 15 minutes, coverslips were blocked with 10% NGS for 30 min. Coverslips were rinsed with 1% NGS in PBS and incubated with anti-TOM20 antibody at 4° C. overnight. Coverslips were then rinsed with 1% NGS, blocked in 10% NGS for 10 min, and rinsed with 1% NGS. Coverslips were incubated with species-specific AlexaFluor® 488-conjugated Abs diluted in 1% NGS for 2 h at room temperature in the dark. Coverslips were rinsed 3× with PBS. Excess liquid was removed, and slides were coverslipped using Fluoromount-G™ mounting medium. Slides were imaged using a confocal microscope with 63x/1.4NA Oil objective. The acquired images were processed for background subtraction in Zen software. Mitochondrial length was calculated from single plane images. Mitochondrial length was defined as the Feret maximum.
To obtain proof-of-concept protective effect of 14b in an ex vivo mouse model of AD we isolated primary mouse cortical neurons from the 5XFAD Alzheimer's model mouse (FIGS. 6A-6C). […]

[3] = tested on: 5XFAD primary cortical neurons; test: Respiration measurements in 5XFAD cortical neurons; format: cell-based, mouse; conditions: 10 μM and 50 μM, 48 hours
Experimental: Respiration Measurements (5XFAD cortical neurons). Primary cortical neurons were plated on poly-D-lysine-coated Seahorse XF24 cell culture microplates at a density of 3×10^4 cells/well and cultured for 14 days. At DIV (day in vitro) 12, neurons were treated with indicated compound for 48 hours. On day of the experiment, cells were washed three times and pre-incubated for 1 h in Assay Media with 10 mM Glucose, 1 mM Pyruvate, and 2 mM L-Glutamine. Measurement of intact cellular respiration was performed using an analyzer and a commercial Mito Stress Test Kit. Respiration was measured under basal conditions, and in response to 1.5 μM oligomycin followed by the addition of the […] (FCCP, 1 μM) which induces maximal OCR (Oxygen Consumption Rate). Finally, respiration was stopped by adding the electron transport chain inhibitors rotenone and antimycin A (0.5 μM). Values were normalized to cellular protein levels.
To obtain proof-of-concept protective effect of 14b in an ex vivo mouse model of AD we isolated primary mouse cortical neurons from the 5XFAD Alzheimer's model mouse (FIGS. 6A-6C). 5XFAD neurons were cultured for 10 days and then treated with 14b at 10 or 50 μM for 48 hours and then stained with the mitochondrial outer membrane protein TOM20 to evaluate mitochondrial morphological changes (FIG. 6A). […]

Structure (SMILES): O=C(C(c1ccccc1)n1cnc2[nH]ncc2c1=S)N1CCC(O)CC1 (centres unmarked) [Compound 14b, 1-(4-hydroxypiperidin-1-yl)-2-phenyl-2-(4-thioxo-1,4-dihydro-5H-pyrazolo[3,4-d]pyrimidin-5-yl)ethan-1-one]
- rescue of Aβ-induced reduction of cell viability (MTS assay) [1]: significantly rescued
- protection of cell viability (MTS assay) ([1]; pretreated 24 hrs, then 25 μM Aβ 48 hrs): 82%
- mitochondrial aspect ratio [2]: significantly rescued
- mitochondrial length [2]: significantly rescued
- mitochondrial respiration (oxygen consumption rate) rescue [3]: trend to rescue
